Laboratory results taken from PMC10787790, “Isatin-tethered halogen-containing acylhydrazone derivatives as monoamine oxidase inhibitor with neuroprotective effect” (Scientific Reports, 2024).

Tests used:
[1] = biological target: T1, MAO-B (Homo sapiens, UniProt P27338); assay: MAO-B inhibition assay (continuous, benzylamine); details: for remaining activity at 10 µM: read-out: Residual activity at 10 µM (%) MAO-B; for SI (selectivity index): (IC50 of MAO-A)/(IC50 of MAO-B), MAO-B compared to MAO-A
T1 sequence (P27338 1-520): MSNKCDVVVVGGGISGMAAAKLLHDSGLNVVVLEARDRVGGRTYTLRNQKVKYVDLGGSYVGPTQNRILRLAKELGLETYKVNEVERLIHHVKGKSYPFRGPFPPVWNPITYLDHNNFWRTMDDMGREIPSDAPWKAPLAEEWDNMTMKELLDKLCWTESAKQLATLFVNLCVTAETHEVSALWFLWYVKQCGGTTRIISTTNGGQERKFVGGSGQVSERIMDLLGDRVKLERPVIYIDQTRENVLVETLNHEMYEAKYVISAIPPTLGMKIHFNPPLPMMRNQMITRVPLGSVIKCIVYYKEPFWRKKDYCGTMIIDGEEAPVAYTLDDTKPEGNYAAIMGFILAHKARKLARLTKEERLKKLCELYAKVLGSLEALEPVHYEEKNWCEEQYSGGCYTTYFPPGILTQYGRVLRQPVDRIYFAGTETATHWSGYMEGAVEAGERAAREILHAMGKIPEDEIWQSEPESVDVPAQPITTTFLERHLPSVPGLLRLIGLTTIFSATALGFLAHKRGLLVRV
Description: (§1) MAO-A and MAO-B activities were determined using 0.06 mM kynuramine and 0.3 mM benzylamine, respectively[39]. […] Concentrations of the substrates used were around 2.0 times of their Km values for the enzyme assay. The absorbance was measured using the continuous assay method described previously[40].
(§2) The selectivity index (SI) values of the compounds were calculated as follows: (IC50 of MAO-A)/(IC50 of MAO-B)[42].

[2] = biological target: T2, MAO-A (Homo sapiens, UniProt P21397); assay: MAO-A inhibition assay (continuous, kynuramine); details: for remaining activity at 10 µM: read-out: Residual activity at 10 µM (%) MAO-A
T2 sequence (P21397 1-527): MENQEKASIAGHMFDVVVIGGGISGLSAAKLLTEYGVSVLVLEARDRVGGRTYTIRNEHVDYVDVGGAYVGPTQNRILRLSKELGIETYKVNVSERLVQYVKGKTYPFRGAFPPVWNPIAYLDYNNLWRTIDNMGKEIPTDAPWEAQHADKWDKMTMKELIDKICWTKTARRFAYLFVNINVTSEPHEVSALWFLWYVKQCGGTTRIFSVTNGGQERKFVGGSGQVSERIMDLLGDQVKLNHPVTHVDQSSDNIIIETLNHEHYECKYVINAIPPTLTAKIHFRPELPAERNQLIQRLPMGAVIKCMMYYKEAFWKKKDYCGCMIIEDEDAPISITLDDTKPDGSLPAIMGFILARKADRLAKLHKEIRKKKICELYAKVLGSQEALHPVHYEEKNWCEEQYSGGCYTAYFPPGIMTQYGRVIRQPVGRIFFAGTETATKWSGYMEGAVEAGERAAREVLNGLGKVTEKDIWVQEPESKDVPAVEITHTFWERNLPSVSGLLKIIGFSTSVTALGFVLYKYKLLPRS
Description: as §1, §2

[3] = Parallel artificial membrane permeability assay (PAMPA), BBB; type: in vitro ADME; details: for Experimental Pe: pH 7.4; for Papp: pH 7.4, read-out: Experimental Pe
Description: The blood–brain barrier (BBB) permeation abilities of the four lead molecules were analyzed using the PAMPA method[44],[45]. The detailed procedure is explained in the Supplementary Data.
Using a microtiter plate with 96 wells and a Millipore filter plate with 96 wells (ipvh, 125 μm thick filter, 0.45 μm pore), which was then saturated with 0.1 mL of n-dodecane, a "sandwich" structure was created in PAMPA. Stock solutions of drug samples in DMSO were created at a 10 mM concentration. The stock solution was diluted in buffer at pH 7.4 before being added to a 96-well filter plate in order to achieve a final sample concentration (0.01, 0.1, and 1 mM) and keep the DMSO concentration at 1% (v/v). The final dilutions were divided into 270 μL for the donor wells and 200 μL of pH 7.4 buffer for the acceptor well. The donor plate was placed on the top of the acceptor filter plate to form a sandwich (comprising of a synthetic lipid membrane in the center, an aqueous receiver on […], and an aqueous donor carrying an analyte on the bottom.). The test substance diffuses from the donor well across the lipid membrane and into the acceptor well. The sandwich is said to have been intact when the penetration occurred. The drug concentration in the reference, donor, and receiver wells was measured using UV spectroscopy. The rate of penetration is calculated using the following expression.
Log Pe = -ln [1-CA /Equilibrium]/A× (1/VD + 1/VA) × t

[4] = biological target: T2, MAO-A; assay: Enzyme kinetics, Lineweaver-Burk and secondary plots, MAO-A
Description: Enzyme inhibition patterns and Ki values were determined by comparing Lineweaver–Burk (LB) plots and their secondary plots, respectively[40].

[5] = tested on: SOD; assay: Superoxide dismutase (SOD) activity in LPS-induced SH-SY5Y cells; type: cell-based, human; details: 10 µM/mL
Description: Using a superoxide dismutase assay kit (KrishGen Biosystems, India), which measures the concentration of formazan crystals using a colorimetric assay, SOD activity was determined. In this test, a tetrazolium salt was used to detect the superoxide radicals produced by xanthine oxidase and hypoxanthine. After treatment, the medium was removed, centrifuged at 2000 rpm for 5 min at room temperature, and placed on ice. A diluted radical detector and lysed cell supernatant or a standard were applied to each well of a 96-well plate to evaluate SOD activity using an ELISA kit, according to the manufacturer’s instructions. The absorbance of the wells was then determined after 5 min at a wavelength of 450 nm using a microplate reader (Safire2, Tecan Group Ltd., Maennedorf, Switzerland).

[6] = tested on: IL-6; assay: IL-6 expression in LPS-induced SH-SY5Y cells; type: cell-based, human; details: LPS 1 µg/mL 2 h, compound 24 h, SH-SY5Y
[7] = tested on: GPx; assay: Glutathione peroxidase (GPx) activity in LPS-induced SH-SY5Y cells; type: cell-based, human; details: 10 µM/mL
Description: A GPx assay kit (KrishGen Biosystems) was used to evaluate the GPx activity. The kit uses a colorimetric assay to determine the quantity of GPx. Glutathione reductase (GR) mediates GPx activity Oxidized glutathione (GSSG) is produced via hydroperoxide reduction by GPx. This glutathione is recycled back to its reduced state by GR and NADPH. The NADPH to NADP + oxidation was accompanied by a decrease in absorbance at 450 nm (A450). When GPx activity was rate-limiting, the rate of decline in A450 was directly correlated with GPx activity. Following treatment, adherent cells were removed from the wells, suspended in cold PBS, sonicated, and frozen. In accordance with the ELISA kit’s instructions, the lysed cell supernatant, or standard, was applied to all 96 wells of a plate together with a diluted radical detector to assay the activity of GPx. A microplate reader was used to measure the absorbance of the wells after 5 min[46]–[49]. Results were obtained in ng/mL.

[8] = tested on: ROS; assay: ROS assay (DCF) in LPS-treated SH-SY5Y cells; type: cell-based, human
Description: (§3) Subcultures were performed every two days.
The OxiSelect Intracellular ROS Assay Kit (Cell Biolabs Inc., San Diego, CA, USA) was used to quantify the levels of the fluorescent probe 20,70-dichlorodihydrofluorescin diacetate (DCFH-DA).

[9] = tested on: CAT; assay: Catalase (CAT) activity in LPS-induced SH-SY5Y cells; type: cell-based, human; details: 10 µM/mL
Description: as §3
CAT activity was determined according to Aebi[50]. A human CAT ELISA kit was purchased commercially (KrishGen Biosystems). Following treatment, the adherent cells were scraped off, suspended in cold PBS, sonicated, and placed on ice. The medium was then removed from each well. The 3 mL CAT assay combination comprised of extract (0.05 mL), phosphate buffer (1.5 mL, 100 mM buffer, pH 7.0), H2O2 (0.5 mL), and distilled water (0.95 mL). The absorbance decreased at 450 nm. CAT activity was reported in terms of ng/mL of H2O2 oxidized per min per gram[46]–[49].

[10] = tested on: TNF-α; assay: TNF-α expression in LPS-induced SH-SY5Y cells; type: cell-based, human; details: LPS 1 µg/mL 2 h, compound 24 h, SH-SY5Y
[11] = tested on: NF-kB; assay: NF-kB expression in LPS-induced SH-SY5Y cells
[12] = biological target: T2, MAO-A; assay: Reversibility study by dialysis, MAO-A
Description: Reversibility test was performed by using Dialyzer DiaEasy™ (6–8 kDa, BioVision, St. Grove, MA, USA).

Row | Compound | IC50 [1] | remaining activity at 10 µM [1] | IC50 [2] | remaining activity at 10 µM [2] | SI (selectivity index) [1] | Prediction (CNS permeation class) [3] | other results
1 | O=C1Nc2ccc(F)cc2/C1=N/NC(=O)c1ccccc1 [IS9] | 9.09 ± 1.28 µM | 45.6 ± 6.28% | > 40 µM | 67.4 ± 1% |  |  | 
2 | O=C1Nc2ccc(F)cc2/C1=N/NC(=O)c1ccc(Cl)cc1 [IS10] | 3.99 ± 0.472 µM | 42.6 ± 0.82% | 18.3 ± 0.729 µM | 54.1 ± 0.78% | 4.58 |  | 
3 | O=C1Nc2ccc(F)cc2/C1=N/NC(=O)c1ccc(Br)cc1 [IS11] | 10.6 ± 0.256 µM | 53.2 ± 2.6% | 13.7 ± 0.396 µM | 43.56 ± 0.42% | 1.30 |  | 
4 | O=C1Nc2ccc(F)cc2/C1=N/NC(=O)c1ccc(F)cc1 [IS12] | 7.1 ± 0.956 µM | 44.3 ± 4.48% | 4.29 ± 0.552 µM | 36.6 ± 1.6% | 0.60 |  | 
5 | O=C1Nc2ccc(Cl)cc2/C1=N/NC(=O)c1ccccc1 [IS13] |  |  |  |  |  | CNS+ (Pe (10^−6 cm/s) > 4.00: CNS + (high permeation)) | CNS/BBB permeability in words [3]: high permeability and CNS bioavailability; Experimental Pe [3]: > 4 ×10⁻⁶ cm/s; Papp [3]: 4.66 ± 0.18 ×10⁻⁶ cm/s
6 | O=C1Nc2ccc(Cl)cc2/C1=N/NC(=O)c1ccc(Cl)cc1 [IS14] | 0.234 ± 0.008 µM | 23 ± 2.48% | 11.3 ± 0.414 µM | 53.1 ± 0.91% | 48.15 |  | 
7 | O=C1Nc2ccc(Cl)cc2/C1=N/NC(=O)c1ccc(Br)cc1 [IS15] | 0.337 ± 0.007 µM | 12.5 ± 3.64% | 1.85 ± 0.085 µM | 34.7 ± 0.71% | 5.50 | CNS+ (Pe (10^−6 cm/s) > 4.00: CNS + (high permeation)) | Ki [4]: 1 ± 0.171 µM; Type of MAO-A inhibition ([4]; LB plot): competitive; Fold higher MAO-A inhibition than IS7 ([2]; relative to IS7): 10.35 times; Fold higher MAO-A inhibition than IS13 ([2]; relative to IS13): 11.94 times; SOD (cellular anti-oxidant enzyme) effect [5]: enhancing the enzyme activity; CNS/BBB permeability in words [3]: high permeability and CNS bioavailability; Experimental Pe [3]: > 4 ×10⁻⁶ cm/s; Papp [3]: 4.39 ± 0.3 ×10⁻⁶ cm/s; IL-6 level vs LPS-treated group [6]: significantly (p < 0.0001) reduced; GPx (cellular anti-oxidant enzyme) effect [7]: enhancing the enzyme activity; DCF intensity decrease at 10 µM ([8]; 10 µM/mL (10 µM), vs LPS-induced cells): effective DCF intensity decrease; DCF expression (ROS) vs cells treated with LPS alone ([8]; LPS-induced SH-SY5Y): significantly inhibited (p < 0.0001); CAT (cellular anti-oxidant enzyme) effect [9]: enhancing the enzyme activity; TNF-alpha level vs LPS-treated group [10]: significantly (p < 0.0001) reduced; NF-kB level vs LPS-treated group ([11]; LPS 1 µg/mL 2 h, compound 24 h, SH-SY5Y): significantly (p < 0.0001) reduced; NF-kB expression compared to IS6 and IS7 ([11]; LPS-treated cell lines): significantly lower; Reversibility of MAO-A inhibition [12]: reversible-type inhibitors
8 | O=C1Nc2ccc(Cl)cc2/C1=N/NC(=O)c1ccc(F)cc1 [IS16] | 3.85 ± 0.392 µM | 26.1 ± 4.39% | 8.45 ± 0.395 µM | 43.7 ± 1.65% | 2.20 |  | 
9 | C#CCN(C)[C@H](C)Cc1ccccc1 [Selegiline, reference compound] |  |  |  |  |  | CNS+ (Pe (10^−6 cm/s) > 4.00: CNS + (high permeation)) | 
